From US5136090A, “Biphenyl-5,5'-bis-alkanoic acid derivatives, their production and aldose reductase inhibitors containing the same” (Toyo Jozo Kabushiki Kaisha, priority 1990, dated 1992)

Key:
[1] = target: T1, partially purified bovine lens aldose reductase (Bos taurus, UniProt P16116); assay: Inhibitory activity on aldose reductase enzyme reaction; assay type: biochemical; conditions: for inhibition at 0.02 µg/mL: concentration 0.02 μg/ml; for inhibition at 0.1 µg/mL: concentration 0.1 μg/ml
T1 construct: partially purified bovine lens aldose reductase; from tissue; host or cells: bovine lens
Description: The preparation of aldose reductase and the determination of its inhibitory action on enzyme reaction activity were carried out pursuant to the procedures disclosed by Haymann et al. in Journal of Biological Chemistry, 240, 877 (1965).
The sample solution to be examined for inhibitory activity was prepared by dissolving a compound of formula (I) according to the present invention in a small amount of methanol and increasing the volume of the resulting methanol solution by diluting it with distilled water up to tenfold volume. A partially purified bovine lens aldose reductase was used for the assay.
To 2.4 ml of a solution of 5×10^-5 M NADPH dissolved in a 2/15M phosphate buffer solution (pH 6.0), 0.4 ml of the enzyme solution (15 m units/ml) and 0.1 ml of the sample solution to be examined were added and the mixture was introduced into a quartz cell in a photoelectric photometer and subjected to pre-incubation at 37° C. for 4 mins. Then, 0.1 ml of a 0.015M D,L-glyceraldehyde solution was added thereto for initiating the enzyme reaction and the decrease in the optical absorption at 340 nm was measured at 37° C. for 4 mins. The inhibitory activity on aldose reductase was calculated by the following equation: [formula] in which A represents the enzyme reaction rate with addition of the inhibitor and B denotes the enzyme reaction rate without addition of the inhibitor.

[2] = test system: Lens; assay: Suppression of sorbitol accumulation in cultured lens; assay type: cell-based, Wistar rats; conditions: concentration 2.5 μg/ml; rat lens cultured 20 hours with 0.9% glucose
Description: (§1) Lenses and sciatic nerves extirpated from Wistar rats, male, aged 7 weeks, were washed twice with an aseptic buffer solution consisting of 0.3% trisaminomethane, 0.8% NaCl, 0.038% KCl, 0.025% Na2 HPO4 ·12H2 O, 0.1% glucose and 1.85 ml/l of concentrated HCl.
(§2) The lenses and the sciatic nerves were then preincubated for 30 mins. in a culture medium prepared by adding 2 ml of 7.5% NaHCO3 aseptic solution and 5.5 ml of aseptic calf fetus serum to 100 ml of an aseptic culture medium of 0.98% TC Medium 199 (NISSUI Corp.) containing 0.01% of dihydrostreptomycin and 0.01% of benzylpenicillin. Thereafter, the intrinsic culture was effected in a culture medium prepared by adding each sample solution to be examined and 0.9% of glucose to the abovementioned culture medium and permitting culturing to proceed for 20 hours. The incubation was effected at 37° C. in an atmosphere composed of 95% air and 5% CO2.
(§3) After culturing, the cultured samples of lens and sciatic nerve were removed from the culture medium to filter paper and the weight of each of them was measured after the adherent culture solution had been blown off. Then, each of the cultured samples was homogenized with the addition of 1 ml of a cold 8% HClO4 solution and the homogenized mixture was subjected to centrifugation at 10,000 G for 10 mins., whereby a supernatant was obtained. The resulting precipitate was then homogenized again with addition thereto of 0.5 ml of cold 8% HClO4 solution and the homogenized mixture was again subjected to centrifugation in a similar way as above to obtain a further supernatant. This was combined with the previously obtained supernatant and the resulting solution was neutralized with 2N KOH aq. solution and was supplemented with distilled water to a volume of 5 ml. The precipitate formed by neutralization was separated by centrifugation at 3,000 rpm for 10 mins. and the resulting supernatant was employed as the sample for determining the sorbitol content.
(§4) The determination of the sorbitol content in the lens and in the sciatic nerve was carried out in accordance with the method of Bergmeyer in "Methods of Enzymatic Analysis" edited by H. U. Bergmeyer, pp 1323-1326, Academic Press, New York, 1974 and in accordance with the method of Malaon et al. in "Diabetes" 29, 861-864 (1980).
(§5) To 0.5 ml cf the sample solution for determination of sorbitol content obtained as above, 0.9 ml of 0.1M glycine-KOH buffer solution (pH 9.4) containing 1 mM of NAD^+ and 0.1 ml of a solution of sorbitol dehydrogenase of 20 units/ml were added and the resulting mixture was subjected to incubation at 37° C. for 1 hour.
(§6) The content of sorbitol in each tissue was estimated by assuming the increment of the optical absorption at 340 nm to be proportional to the amount of NADH produced by the reaction for the lens and by detecting the fluorescence with an excitation wavelength of 366 nm and a fluorescence wavelength of 425 nm for the sciatic nerve.
(§7) The activity for suppressing accumulation of sorbitol, i.e. the aldose reductase inhibiting activity, was calculated from the determined sorbitol content by the calculation formula [formula] in which A denotes the content of sorbitol per unit weight of the tissue after cultivation with addition of the inhibitor, B denotes the sorbitol content per unit weight of the tissue after cultivation without addition of the inhibitor and C represents the sorbitol content per unit weight of the tissue after cultivation in the medium without addition of glucose and inhibitor.

[3] = test system: Sciatic Nerve; assay: Suppression of sorbitol accumulation in cultured sciatic nerve; assay type: cell-based, Wistar rats; conditions: Rattus norvegicus, 20 h, concentration 1.0 μg/ml; rat sciatic nerve cultured 20 hours with 0.9% glucose
Description: as §1, §2, §3, §4, §5, §6, §7

Question: How did the inhibition at 0.02 µg/mL [1] turn out when COc1ccc(CCC(=O)O)cc1-c1cc(CCC(=O)O)ccc1O [Example 16, 2-methoxy-2'-hydroxy-5,5'-bis (2-carboxyethyl) biphenyl] was run?
Answer: Its inhibition at 0.02 µg/mL is 21.1%.

Question: What about the inhibition at 0.1 µg/mL [1] of the same molecule?
Answer: Its inhibition at 0.1 µg/mL is 51.4%.

Question: What about the inhibition at 2.5 µg/mL [2] of the same molecule?
Answer: Its inhibition at 2.5 µg/mL is 59.3%.

Question: What about the inhibition at 1 µg/mL [3] of the same molecule?
Answer: The inhibition at 1 µg/mL was 47.7%.

Question: CCOc1ccc(CCC(=O)O)cc1-c1cc(CCC(=O)O)ccc1O [Example 17, 2-ethoxy-2'-hydroxy-5,5'-bis (2-carboxyethyl) biphenyl] was tested. Which inhibition at 0.02 µg/mL [1] did it give?
Answer: The inhibition at 0.02 µg/mL was 19.5%.

Question: And the inhibition at 0.1 µg/mL [1]?
Answer: The inhibition at 0.1 µg/mL was 55%.

Question: What about the inhibition at 2.5 µg/mL [2] of the same molecule?
Answer: The inhibition at 2.5 µg/mL was 47.2%.

Question: What about the inhibition at 1 µg/mL [3] of the same molecule?
Answer: The inhibition at 1 µg/mL was 69.2%.

Question: Which inhibition at 0.02 µg/mL [1] does the source give for COc1ccc(CCCC(=O)O)cc1-c1cc(CCCC(=O)O)ccc1O [Example 21, 2-methoxy-2'-hydroxy-5,5'-bis (3-carboxypropyl) biphenyl] here?
Answer: Its inhibition at 0.02 µg/mL is 14.7%.

Question: What about the inhibition at 0.1 µg/mL [1] of the same molecule?
Answer: The inhibition at 0.1 µg/mL was 52.7%.

Question: What about the inhibition at 2.5 µg/mL [2] of the same molecule?
Answer: The inhibition at 2.5 µg/mL was 48.8%.

Question: And the inhibition at 1 µg/mL [3]?
Answer: The inhibition at 1 µg/mL was 75.4%.

Question: How did the inhibition at 0.02 µg/mL [1] turn out when CCCOc1ccc(CCCC(=O)O)cc1-c1cc(CCCC(=O)O)ccc1O [Example 23, 2-propoxy-2'-hydroxy-5,5'-bis (3-carboxypropyl) biphenyl] was run?
Answer: Its inhibition at 0.02 µg/mL is 33.6%.

Question: What about the inhibition at 0.1 µg/mL [1] of the same molecule?
Answer: The inhibition at 0.1 µg/mL was 69.2%.

Question: What about the inhibition at 2.5 µg/mL [2] of the same molecule?
Answer: The inhibition at 2.5 µg/mL was 55.3%.

Question: And the inhibition at 1 µg/mL [3]?
Answer: Its inhibition at 1 µg/mL is 81.1%.
